Drawing on PubChem BioAssay AID1421 (Emory University Molecular Libraries Screening Center, 2008), this text covers outcome and PGE2 EC50 with compound for 89 molecules.

Activity calls are given as the source filed them. How the calls were made is not given here.

Chain of Prostaglandin E2 receptor EP2 subtype (Homo sapiens) (P43116 whole entry, looked up): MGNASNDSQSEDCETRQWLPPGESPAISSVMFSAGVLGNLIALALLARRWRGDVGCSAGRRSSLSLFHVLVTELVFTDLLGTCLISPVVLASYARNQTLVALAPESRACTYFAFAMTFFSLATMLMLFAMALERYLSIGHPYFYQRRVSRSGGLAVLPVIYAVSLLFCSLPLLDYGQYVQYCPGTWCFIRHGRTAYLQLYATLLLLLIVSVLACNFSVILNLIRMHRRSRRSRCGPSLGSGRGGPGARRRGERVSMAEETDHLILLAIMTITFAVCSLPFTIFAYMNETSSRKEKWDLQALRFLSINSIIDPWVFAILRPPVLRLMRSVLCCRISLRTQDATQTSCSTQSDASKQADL

One test has as its target Prostaglandin E2 receptor EP2 subtype (Homo sapiens) (UniProt P43116). Briefly: compounds shifting PGE2 potency at EP2 – cell-based, human EP2, PGE2 EC50 shift, dose response (AID 1421). Conditions: EP2-expressing cells, PGE2 EC50 shift by compound.
With `Cc1ccc(C(=O)Nc2ccccc2C(=O)NCc2ccccc2)cc1`, the result was active.

As to `CC1CCc2c(sc(N)c2C(=O)OC(C)C)C1` (centres undefined), the outcome was active.

In the case of `CCOC(=O)c1cnc(SC)nc1Sc1ccccc1Cl`, the result was active.

For `Cc1ccccc1CN(C)CC(=O)Nc1ccccc1Oc1ccccc1`, the outcome was active.

`CCSc1cc(N2CCOCC2)nc(-c2ccccc2)n1`: the result was active.

Staying with this test, now noted: EP2-expressing cells, PGE2 EC50 shift by compound; measured here: PGE2 EC50 at 6.7 uM compound.
Consider `Cn1c(=O)c2c(nc(CN3CCN(c4ccccc4)CC3)n2Cc2ccccc2Cl)n(C)c1=O`, for which the PGE2 EC50 with compound worked out at 2.59 nM.

On to `CCOC(=O)CSc1nc(Cc2ccccc2)nc2ccccc12`, for which the PGE2 EC50 with compound was 1.15 nM.

For the molecule `Cc1cc(O)ccc1C1(c2ccc(O)cc2C)OC(=O)c2ccccc21`, the PGE2 EC50 with compound is 0.55 nM.

On to `CCSC1=N/C(=C\c2ccccc2)C(=O)N1c1ccc(OC)cc1`, for which the PGE2 EC50 with compound stood at 0.75 nM.

With `Cc1ccc(S(=O)(=O)N(CC(=O)N=Nc2c(O)[nH]c3ccccc23)c2ccc(C)c(C)c2)cc1`, the PGE2 EC50 with compound worked out at 2.05 nM.

As for `Cc1ccc(C(=O)Nc2ccccc2C(=O)NCc2ccccc2)cc1`, the PGE2 EC50 with compound turned out to be 1.42 nM.

With `Cc1cccc(C)c1NC(=O)CSc1nnc(Cn2nnc(-c3ccccc3)n2)n1-c1ccccc1`, the PGE2 EC50 with compound amounted to 0.65 nM.

In the case of `CCCCc1nnc(SCCSc2nnc(CCCC)n2N)n1N`, the PGE2 EC50 with compound was determined as 1 nM.

`c1ccc(-c2ccccc2-c2nc(-c3cccnc3)no2)cc1`: the PGE2 EC50 with compound came to 2.82 nM.

With `O=C(CSc1nnc(COc2ccccc2)n1-c1ccccc1)c1ccccc1`, the PGE2 EC50 with compound is 1.19 nM.

On to `COc1c(O)ccc(/C=C(\C#N)c2nc3ccccc3[nH]2)c1[N+](=O)[O-]`, for which the PGE2 EC50 with compound was found to be 1.1 nM.

`CCN(CC)C(=O)c1nn(-c2ccccc2)c2c1C1CCC2(C)C1(C)C` (centres undefined): the PGE2 EC50 with compound came to 1.24 nM.

Regarding `COC(=O)CSc1nc(Cc2ccccc2)nc2ccccc12`, the PGE2 EC50 with compound worked out at 2.72 nM.

With `Cc1ccc2c(c1)N(S(=O)(=O)c1ccc(F)cc1)C(C(C)(C)C)CO2` (centres undefined), the PGE2 EC50 with compound stood at 1.11 nM.

In the case of `CCOC(=O)c1c(NC(=O)c2ccc(N3C(=O)[C@@H]4[C@H](C3=O)[C@H]3C=C[C@@H]4C3)cc2)sc2c1CC(C)CC2` (some centres undefined), the PGE2 EC50 with compound worked out at 1.22 nM.

For `CC1CCc2c(sc(N)c2C(=O)OC(C)C)C1` (centres undefined), the PGE2 EC50 with compound was 0.91 nM.

Consider `C[C@]12CCC(=O)C=C1CCC1C2CC[C@@]2(C)C1CC[C@@H]2O` (some centres undefined), for which the PGE2 EC50 with compound stood at 1.55 nM.

On to `C/C(=N\N(Cc1ccccc1)c1ccccc1)c1ccncc1`, for which the PGE2 EC50 with compound came out at 1.48 nM.

For `COc1ccccc1/C=N/N(C(C)=O)c1nc(-c2ccc(F)cc2)cs1`, the PGE2 EC50 with compound amounted to 1.1 nM.

As to `CN(Cc1cccs1)c1nc(-c2cccnc2)nc2ccccc12`, the PGE2 EC50 with compound amounted to 1.07 nM.

Take `COc1c(O)cc2oc3cc(O)c(CC=C(C)C)c(O)c3c(=O)c2c1CC=C(C)C`: the PGE2 EC50 with compound was 2.62 nM.

As to `CCSc1ccccc1C(=O)n1nnc2ccccc21`, the PGE2 EC50 with compound worked out at 1.77 nM.

Regarding `COc1ccc(-n2c(COc3cccc4ccccc34)nnc2SCC#N)cc1`, the PGE2 EC50 with compound is 1.19 nM.

Regarding `Cc1ccccc1OCc1nc2ccccc2c(=O)n1/N=C/c1ccco1`, the PGE2 EC50 with compound stood at 1.02 nM.

On to `COC(=O)c1c(C)nc2ccccc2c1-c1ccccc1`, for which the PGE2 EC50 with compound worked out at 1.54 nM.

As to `CCOC(=O)C1=C(C)NC(C)=C(C(=O)OC)C1c1cccc(Cl)c1Cl` (centres undefined), the PGE2 EC50 with compound was determined as 0.69 nM.

For the molecule `C=CCSc1nc2ccccc2n1S(=O)(=O)c1ccc(C)cc1`, the PGE2 EC50 with compound turned out to be 0.95 nM.

Regarding `CC(C)(Sc1ccc(CCN(CCCCC2CCCCC2)C(=O)NC2CCCCC2)cc1)C(=O)O`, the PGE2 EC50 with compound turned out to be 1.23 nM.

In the case of `Cc1ccc(C2CC2c2n[nH]c(=S)n2-c2ccc(Cl)cc2)cc1` (centres undefined), the PGE2 EC50 with compound was found to be 1.23 nM.

Turning to `O=C(O)NCc1ccccc1` (tested in a mixture with another compound), the PGE2 EC50 with compound came to 1.38 nM.

Take `CC1(C)Cc2nc3sc4c(SCC(=O)NC(c5ccccc5)c5ccccc5)ncnc4c3cc2CO1`: the PGE2 EC50 with compound amounted to 1.48 nM.

Consider `Cn1c(/C=C/N(Cc2ccccc2)c2ccccc2)c([N+](=O)[O-])c(=O)n(C)c1=O`, for which the PGE2 EC50 with compound was found to be 1.21 nM.

As to `CC1CCCN(C(=O)CSc2cnc3ccccc3n2)C1` (centres undefined), the PGE2 EC50 with compound was 1.26 nM.

As for `CCOP(=O)(OCC)c1nc(-c2ccc(Cl)cc2Cl)oc1N1CCCCC1`, the PGE2 EC50 with compound was found to be 1.42 nM.

On to `CCn1c(=NC(=O)c2ccc(S(=O)(=O)N3CCOCC3)cc2)sc2cccc(OC)c21`, for which the PGE2 EC50 with compound was determined as 0.91 nM.

`CCCn1c(Nc2nc3ccccc3n2C)nc2ccccc21`: the PGE2 EC50 with compound was determined as 1.02 nM.

Consider `CC(=O)Oc1c2c(c3c(c1CC=C(C)C)O[C@]14C(=C[C@@H]5CC1C(C)(C)OC4(C/C=C(\C)C(=O)O)C5=O)C3=O)OC(C)(CCC=C(C)C)C=C2` (some centres undefined), for which the PGE2 EC50 with compound was found to be 0.89 nM.

As to `CCOC(=O)c1[nH]c2ccc(OC)cc2c1NS(=O)(=O)c1ccc(Cl)s1`, the PGE2 EC50 with compound stood at 2.87 nM.

For `CCOC(=O)c1cnc(SC)nc1Sc1ccccc1Cl`, the PGE2 EC50 with compound was determined as 1.07 nM.

Regarding `CC1CCN(c2ccccc2NC(=O)c2ccc(F)cc2)CC1`, the PGE2 EC50 with compound was determined as 0.69 nM.

Regarding `COc1cc2ccccc2cc1C(=O)NC(=S)Nc1cc(C(=O)O)ccc1C`, the PGE2 EC50 with compound worked out at 3.08 nM.

In the case of `Cc1ccc(-c2nc3ccccc3nc2Cl)cc1`, the PGE2 EC50 with compound was determined as 0.49 nM.

Turning to `COc1cc(C2Oc3cc(C4Oc5cc(O)cc(O)c5C(=O)C4O)ccc3OC2CO)ccc1O` (centres undefined), the PGE2 EC50 with compound was 1.15 nM.

In the case of `Cc1cc(SCC(=O)c2ccccc2)nc2ccccc12`, the PGE2 EC50 with compound turned out to be 1.09 nM.

On to `CCSc1ccccc1C(=O)Nc1ccc([N+](=O)[O-])cc1OC`, for which the PGE2 EC50 with compound amounted to 1.06 nM.

As to `CC(=O)Oc1ccc2ccccc2c1C(NC(=O)Cc1ccccc1)c1ccccc1` (centres undefined), the PGE2 EC50 with compound is 1.1 nM.

Consider `Cc1ccccc1CN(C)CC(=O)Nc1ccccc1Oc1ccccc1`, for which the PGE2 EC50 with compound amounted to 1.12 nM.

For `CCOC(=O)C(Cc1ccccc1)(NC(C)=O)C(=O)OCC`, the PGE2 EC50 with compound was 1.39 nM.

Regarding `Cc1cnn(-c2nc(-c3ccccc3)cc(-c3ccccc3)n2)c1`, the PGE2 EC50 with compound stood at 0.95 nM.

As for `S=c1[nH]nc(-c2ccco2)n1/N=C/c1ccc(Cl)cc1Cl`, the PGE2 EC50 with compound was determined as 1.06 nM.

On to `CCCc1cc(=O)[nH]c(SCC(=O)N2CCC(C(=O)OCC)CC2)n1`, for which the PGE2 EC50 with compound was 0.64 nM.

On to `Cc1cccc(NC2=NC(=S)N(c3ccc(C(=O)O)cc3)C23CCCCC3)c1`, for which the PGE2 EC50 with compound was 0.8 nM.

For `O=S(=O)(c1cccs1)N1CN(Cc2cccs2)c2nc3ccccc3nc21`, the PGE2 EC50 with compound worked out at 1.64 nM.

With `Cc1noc(C)c1CSc1nc2ccccc2c(=O)n1-c1ccc(Cl)cc1`, the PGE2 EC50 with compound was 0.83 nM.

Take `CC(C)(C)n1nnnc1C(c1ccncc1)N(Cc1ccccc1)Cc1ccco1` (centres undefined): the PGE2 EC50 with compound turned out to be 1.03 nM.

As to `COC(=O)c1c(NC(=O)c2ccccc2N(C)S(=O)(=O)c2ccccc2)sc2c1CCCC2`, the PGE2 EC50 with compound was determined as 1.49 nM.

For `C=CCc1cc(C=O)cc(OC)c1OCc1ccc(Cl)cc1`, the PGE2 EC50 with compound is 0.57 nM.

Take `CC(C)Oc1ccc(/C=C(/NC(=O)c2ccccc2)C(=O)NCCC(=O)O)cc1`: the PGE2 EC50 with compound was 0.92 nM.

Turning to `COC(=O)c1sccc1NC(=O)c1cccc(OC)c1`, the PGE2 EC50 with compound is 1.42 nM.

In the case of `COC(=O)C(C)Sc1ncnc2c1nnn2-c1ccc(F)cc1` (centres undefined), the PGE2 EC50 with compound is 1.11 nM.

For the molecule `COc1cc(-c2noc(-c3cccc(Cl)c3)n2)cc(OC)c1OC`, the PGE2 EC50 with compound is 1.11 nM.

`O=C(c1ccc2c(c1)OCO2)N(Cc1cccs1)C1(C(=O)NC2CCCCC2)CCCCC1`: the PGE2 EC50 with compound is 1.08 nM.

Turning to `CCOc1ccccc1Cn1c(=O)sc2ccccc21`, the PGE2 EC50 with compound was 2.65 nM.

As to `O=C(O)/C=C/c1ccccc1Oc1ccc(Cl)cc1Cl`, the PGE2 EC50 with compound was 1.21 nM.

As for `CCOC(=O)C1=NN(c2cccc(C)c2)C2(S1)SC(C(C)=O)=C(C)N2c1ccccc1` (centres undefined), the PGE2 EC50 with compound was found to be 0.31 nM.

In the case of `COC(=O)c1cc2occc2n1Cc1cccc(C)c1`, the PGE2 EC50 with compound came to 0.79 nM.

Consider `C=CCn1c(SCc2c(C)noc2C)nc2ccccc2c1=O`, for which the PGE2 EC50 with compound was determined as 1.49 nM.

Turning to `COC(=O)c1cc2ccsc2n1Cc1ccccc1F`, the PGE2 EC50 with compound was 0.83 nM.

For the molecule `O=C(Cc1ccc(Br)cc1)Nc1ccccc1Sc1ccccc1`, the PGE2 EC50 with compound worked out at 1.2 nM.

With `CC(=O)c1sc2nc(-c3ccc(C)cc3)c3c(c2c1N)CCCC3`, the PGE2 EC50 with compound is 2.47 nM.

Turning to `CC1CCN(C(C)C(=O)Nc2ccccc2-c2ccccc2)CC1` (centres undefined), the PGE2 EC50 with compound came out at 1.27 nM.

Regarding `CCSc1cc(N2CCOCC2)nc(-c2ccccc2)n1`, the PGE2 EC50 with compound amounted to 1.02 nM.

Regarding `CCOC(=O)c1c(NC(=O)CN2CCCCC2)sc2c1CCN(C(=O)OCC)C2`, the PGE2 EC50 with compound stood at 0.9 nM.

Take `O=C(COC(=O)c1ccc(S(=O)(=O)N2CCCC2)cc1)Nc1ccc(F)cc1F`: the PGE2 EC50 with compound was 1.73 nM.

For `C[C@H](CN(C)C)C(=O)c1ccccc1C(=O)O`, the PGE2 EC50 with compound is 1.41 nM.

Turning to `O=C(Nc1ccc2c(c1)OCO2)c1cccc2c1C(=O)N(C1CCCCC1)C2`, the PGE2 EC50 with compound is 0.8 nM.

Consider `C=CCN1C(=O)N(/C=C/C)c2cccc3cccc1c23`, for which the PGE2 EC50 with compound was 2.79 nM.

As for `Cc1ccc(-c2nc(P(=O)(c3ccccc3)c3ccccc3)c(N3CCOCC3)o2)cc1`, the PGE2 EC50 with compound turned out to be 1.18 nM.

Regarding `Cc1cccc(/N=C/c2c(O)ccc3oc4c(c23)CCCC4)n1`, the PGE2 EC50 with compound worked out at 1.04 nM.

`CC1CCN(c2nc3c(c(=O)[nH]c(=O)n3C)n2CC(C)CSc2nnnn2-c2ccccc2)CC1` (centres undefined): the PGE2 EC50 with compound was determined as 1.27 nM.

Consider `O=C1C2C3c4ccccc4C(c4ccccc43)C2c2nc3ccccc3n21` (centres undefined), for which the PGE2 EC50 with compound came out at 1.4 nM.

Turning to `Cc1nc2c3cc(F)ccc3n(Cc3ccccc3)c2s1`, the PGE2 EC50 with compound was 0.57 nM.

For the molecule `CCc1ccc(OCc2n[nH]c(=S)n2C(C)CCCC(C)C)cc1` (centres undefined), the PGE2 EC50 with compound worked out at 1.4 nM.

`CCOC(=O)COc1cc(Br)c(/C=N/Nc2ccccc2)cc1OC`: the PGE2 EC50 with compound came to 2.69 nM.

Turning to `O=C(Nc1ccccc1N1CCCC1)c1cc2ccccc2o1`, the PGE2 EC50 with compound stood at 1.46 nM.

Take `CCOP(=O)(c1ccccc1)c1nc(-c2ccccc2C)oc1N1CCCCC1` (centres undefined): the PGE2 EC50 with compound turned out to be 0.69 nM.

`COC(=O)c1c(NC(=O)c2ccc(Br)s2)sc2c1CCC2`: the PGE2 EC50 with compound was determined as 1.14 nM.

Take `O=C(CN1CCN(Cc2ccccc2)CC1)Nc1ccccc1-c1ccccc1`: the PGE2 EC50 with compound is 2.97 nM.

Take `Nc1ccccc1CCCC(=O)O`: the PGE2 EC50 with compound worked out at 0.98 nM.
